The text below walks through data of patent publication US10301317B2, “Inhibitors of ERK and methods of use” (Kura Oncology, Inc., priority 2013, dated 2019).

One experiment deals with H358 (Kras, G12C) cells. The experiment is described as follows: Tumor cell line proliferation assay (CellTiter Glo), H358. Conditions: Homo sapiens, NCI-H358, 96 hours. It is filed as cell-based. A general note: ATP-based viability assays read luminescence as a measure of living cells.
The molecule `COc1cccc(F)c1CN1CCC[C@@H](N2Cc3cc4c(-c5ccnc(C)c5)n[nH]c4cc3NC2=O)C1` [Example 144] returned an IC50 of no more than 250 nM.
`Cc1cc(-c2n[nH]c3cc4c(cc23)CN([C@@H]2CCN(Cc3ccccc3)C2)C(=O)N4)ccn1` [Example 146] had an IC50 of no more than 250 nM.
On the same count and under the same terms, the figure for `Cc1cc(-c2n[nH]c3cc4c(cc23)CN([C@@H]2CCN(Cc3c(F)cccc3F)C2)C(=O)N4)ccn1` [Example 147] is no more than 250 nM; for `Cc1cc(-c2n[nH]c3cc4c(cc23)CN([C@@H]2CCCN(Cc3cccnc3C(F)(F)F)C2)C(=O)N4)ccn1` [Example 161] it is 250 to 1000 nM.
The same measure, in the same setting: in the case of `Cc1cc(-c2n[nH]c3cc4c(cc23)CN([C@@H]2CCCN(Cc3cc(F)cc(F)c3)C2)C(=O)N4)ccn1` [Example 163] it was 250 to 1000 nM.
For `[2H]c1c([2H])c([2H])c(C([2H])([2H])N2CCC[C@@H](N3Cc4cc5c(-c6ccnc(C)c6)n[nH]c5cc4NC3=O)C2)c([2H])c1[2H]` [Example 165], the IC50 was no more than 250 nM.
For `Cc1cc(-c2n[nH]c3cc4c(cc23)CN([C@@H]2CCCN(c3cccc(Cl)c3)C2)C(=O)N4)ccn1` [Example 174], the IC50 is no more than 250 nM.
The same measure, in the same setting: the figure for `Cc1cc(-c2n[nH]c3cc4c(cc23)CN([C@@H]2CCCN(CCC(F)(F)F)C2)C(=O)N4)ccn1` [Example 178] is 250 to 1000 nM.
The same measure, in the same setting: the figure for `Cc1cc(-c2n[nH]c3cc4c(cc23)CN([C@@H]2CCCN(C(C)c3ccc(F)cc3)C2)C(=O)N4)ccn1` (stereo partly drawn) [Example 179] is 250 to 1000 nM.
`Cc1cc(-c2n[nH]c3cc4c(cc23)CN([C@@H]2CCCN(C(C)c3cccc(Cl)c3)C2)C(=O)N4)ccn1` (stereo partly drawn) [Example 180]: the IC50 is 250 to 1000 nM.
`Cc1cc(-c2n[nH]c3cc4c(cc23)CC(C(C)c2cccc(Cl)c2)C(=O)N4)ccn1` (stereo not drawn) [Example 181] had an IC50 of no more than 250 nM.
As to `Cc1cc(-c2n[nH]c3cc4c(cc23)CN([C@@H]2CCCN(Cc3ccc(F)c(F)c3)C2)C(=O)N4)ccn1` [Example 190], the IC50 was in the range of 250 to 1000 nM.
On to `Cc1cc(-c2n[nH]c3cc4c(cc23)CN([C@@H]2CCCN(CC(F)(F)F)C2)C(=O)N4)ccn1` [Example 193], for which the IC50 was 250 to 1000 nM.
`Cc1cc(-c2n[nH]c3cc4c(cc23)CN([C@@H]2CCCN(Cc3ccc(F)cc3F)C2)C(=O)N4)ccn1` [Example 196] registered an IC50 of no more than 250 nM.
Still for that read-out and setting: in the case of `Cc1cc(-c2n[nH]c3cc4c(cc23)CN([C@@H]2CCCN(c3ccc(F)cn3)C2)C(=O)N4)ccn1` [Example 199] it was 250 to 1000 nM; in that of `Cc1cc(-c2n[nH]c3cc4c(cc23)CN(C2CN(Cc3ccccc3)CC(F)(F)C2)C(=O)N4)ccn1` (stereo not drawn) [Example 200], 250 to 1000 nM.

Another experiment relates to phospho-p90 RSK (RSK1 Thr359/Ser363) in A375 (Braf V600E) cells. The experiment is described as follows: Phospho-p90 RSK ELISA using A375 (Braf V600E) cells. It is filed as cell-based. The note with it: Homo sapiens, A-375, 2 hours compound treatment, read-out: Cellular Phospho-p90RSK IC50. (In general: An ELISA detects its analyte on a solid surface through an enzyme-linked reagent.)
With `COc1cccc(F)c1CN1CCC[C@@H](N2Cc3cc4c(-c5ccnc(C)c5)n[nH]c4cc3NC2=O)C1` [Example 144], the IC50 is no more than 250 nM.
As for `Cc1cc(-c2n[nH]c3cc4c(cc23)CN([C@@H]2CCN(Cc3ccccc3)C2)C(=O)N4)ccn1` [Example 146], the IC50 is no more than 250 nM.
Turning to `Cc1cc(-c2n[nH]c3cc4c(cc23)CN([C@@H]2CCN(Cc3c(F)cccc3F)C2)C(=O)N4)ccn1` [Example 147], the IC50 was no more than 250 nM.
Take `Cc1cc(-c2n[nH]c3cc4c(cc23)CN([C@@H]2CCCN(Cc3cccnc3C(F)(F)F)C2)C(=O)N4)ccn1` [Example 161]: the IC50 is no more than 250 nM.
Same read-out and setting: in the case of `Cc1cc(-c2n[nH]c3cc4c(cc23)CN([C@@H]2CCCN(Cc3cc(F)cc(F)c3)C2)C(=O)N4)ccn1` [Example 163] it was no more than 250 nM; in that of `[2H]c1c([2H])c([2H])c(C([2H])([2H])N2CCC[C@@H](N3Cc4cc5c(-c6ccnc(C)c6)n[nH]c5cc4NC3=O)C2)c([2H])c1[2H]` [Example 165], no more than 250 nM; in that of `Cc1cc(-c2n[nH]c3cc4c(cc23)CN([C@@H]2CCCN(c3cccc(Cl)c3)C2)C(=O)N4)ccn1` [Example 174], no more than 250 nM.
In the case of `Cc1cc(-c2n[nH]c3cc4c(cc23)CN([C@@H]2CCCN(CCC(F)(F)F)C2)C(=O)N4)ccn1` [Example 178], the IC50 is no more than 250 nM.
On the same count and under the same terms, in the case of `Cc1cc(-c2n[nH]c3cc4c(cc23)CN([C@@H]2CCCN(C(C)c3ccc(F)cc3)C2)C(=O)N4)ccn1` (stereo partly drawn) [Example 179] it was no more than 250 nM; in that of `Cc1cc(-c2n[nH]c3cc4c(cc23)CN([C@@H]2CCCN(C(C)c3cccc(Cl)c3)C2)C(=O)N4)ccn1` (stereo partly drawn) [Example 180], no more than 250 nM; in that of `Cc1cc(-c2n[nH]c3cc4c(cc23)CC(C(C)c2cccc(Cl)c2)C(=O)N4)ccn1` (stereo not drawn) [Example 181], no more than 250 nM.
The same measure, in the same setting: the figure for `Cc1cc(-c2n[nH]c3cc4c(cc23)CN([C@@H]2CCCN(Cc3ccc(F)c(F)c3)C2)C(=O)N4)ccn1` [Example 190] is no more than 250 nM; for `Cc1cc(-c2n[nH]c3cc4c(cc23)CN([C@@H]2CCCN(CC(F)(F)F)C2)C(=O)N4)ccn1` [Example 193] it is no more than 250 nM.
Same read-out and setting: in the case of `Cc1cc(-c2n[nH]c3cc4c(cc23)CN([C@@H]2CCCN(Cc3ccc(F)cc3F)C2)C(=O)N4)ccn1` [Example 196] it was no more than 250 nM; in that of `Cc1cc(-c2n[nH]c3cc4c(cc23)CN([C@@H]2CCCN(c3ccc(F)cn3)C2)C(=O)N4)ccn1` [Example 199], no more than 250 nM.
Consider `Cc1cc(-c2n[nH]c3cc4c(cc23)CN(C2CN(Cc3ccccc3)CC(F)(F)C2)C(=O)N4)ccn1` (stereo not drawn) [Example 200], for which the IC50 is no more than 250 nM.

Another experiment has as its system A375 cells. Nature of the experiment: Tumor cell line proliferation assay (CellTiter Glo), A375. It is filed as cell-based. The note with it: Homo sapiens, A-375, 96 h, read-out: A375 (V599E) Cell Proliferation IC50.
In the case of `COc1cccc(F)c1CN1CCC[C@@H](N2Cc3cc4c(-c5ccnc(C)c5)n[nH]c4cc3NC2=O)C1` [Example 144], the IC50 was no more than 250 nM.
Take `Cc1cc(-c2n[nH]c3cc4c(cc23)CN([C@@H]2CCN(Cc3ccccc3)C2)C(=O)N4)ccn1` [Example 146]: the IC50 was no more than 250 nM.
On to `Cc1cc(-c2n[nH]c3cc4c(cc23)CN([C@@H]2CCN(Cc3c(F)cccc3F)C2)C(=O)N4)ccn1` [Example 147], for which the IC50 lay in the range of 250 to 1000 nM.
The same measure, in the same setting: the figure for `Cc1cc(-c2n[nH]c3cc4c(cc23)CN([C@@H]2CCCN(Cc3cccnc3C(F)(F)F)C2)C(=O)N4)ccn1` [Example 161] is 250 to 1000 nM; for `Cc1cc(-c2n[nH]c3cc4c(cc23)CN([C@@H]2CCCN(Cc3cc(F)cc(F)c3)C2)C(=O)N4)ccn1` [Example 163] it is 250 to 1000 nM; for `[2H]c1c([2H])c([2H])c(C([2H])([2H])N2CCC[C@@H](N3Cc4cc5c(-c6ccnc(C)c6)n[nH]c5cc4NC3=O)C2)c([2H])c1[2H]` [Example 165] it is no more than 250 nM.
As for `Cc1cc(-c2n[nH]c3cc4c(cc23)CN([C@@H]2CCCN(c3cccc(Cl)c3)C2)C(=O)N4)ccn1` [Example 174], the IC50 was in the range of 250 to 1000 nM.
The same measure, in the same setting: in the case of `Cc1cc(-c2n[nH]c3cc4c(cc23)CN([C@@H]2CCCN(CCC(F)(F)F)C2)C(=O)N4)ccn1` [Example 178] it was 250 to 1000 nM.
On the same count and under the same terms, in the case of `Cc1cc(-c2n[nH]c3cc4c(cc23)CN([C@@H]2CCCN(C(C)c3ccc(F)cc3)C2)C(=O)N4)ccn1` (stereo partly drawn) [Example 179] it was 250 to 1000 nM.
In the case of `Cc1cc(-c2n[nH]c3cc4c(cc23)CN([C@@H]2CCCN(C(C)c3cccc(Cl)c3)C2)C(=O)N4)ccn1` (stereo partly drawn) [Example 180], the IC50 lay within 250 to 1000 nM.
Same read-out and setting: the figure for `Cc1cc(-c2n[nH]c3cc4c(cc23)CC(C(C)c2cccc(Cl)c2)C(=O)N4)ccn1` (stereo not drawn) [Example 181] is no more than 250 nM; for `Cc1cc(-c2n[nH]c3cc4c(cc23)CN([C@@H]2CCCN(Cc3ccc(F)c(F)c3)C2)C(=O)N4)ccn1` [Example 190] it is no more than 250 nM; for `Cc1cc(-c2n[nH]c3cc4c(cc23)CN([C@@H]2CCCN(CC(F)(F)F)C2)C(=O)N4)ccn1` [Example 193] it is 250 to 1000 nM.
With `Cc1cc(-c2n[nH]c3cc4c(cc23)CN([C@@H]2CCCN(Cc3ccc(F)cc3F)C2)C(=O)N4)ccn1` [Example 196], the IC50 was no more than 250 nM.
In the case of `Cc1cc(-c2n[nH]c3cc4c(cc23)CN([C@@H]2CCCN(c3ccc(F)cn3)C2)C(=O)N4)ccn1` [Example 199], the IC50 was in the range of 250 to 1000 nM.
Still for that read-out and setting: in the case of `Cc1cc(-c2n[nH]c3cc4c(cc23)CN(C2CN(Cc3ccccc3)CC(F)(F)C2)C(=O)N4)ccn1` (stereo not drawn) [Example 200] it was 250 to 1000 nM.
